From ChEMBL document CHEMBL1130689, “Cathepsin B-sensitive dipeptide prodrugs. 2. Models of anticancer drugs paclitaxel (Taxol), mitomycin C and doxorubicin” (Bioorg Med Chem Lett, 1998)

Experiments:
Rattus norvegicus = species on record: Rattus norvegicus; test: The release rate of the free drug from the substrate in rat liver lysosomal preparation by rat liver lysosomal assay; format: ADME
[1] = The release rate of the free drug from the substrate in human plasma by human plasma stability assay; Not hydrolyzed; format: ADME, cell-free
[2] = The release rate of the free drug from the substrate in presence of Cathepsin B by Cathepsin B assay; format: ADME
[3] = The release rate of the free drug from the substrate in human plasma by human plasma stability assay; format: ADME, cell-free

Row | T1/2 (Rattus norvegicus) [min] | T1/2 [1] | T1/2 [2] [min] | T1/2 [3] [h] | Compound
1 | 24 |  | 10 | 149 | COC12C(COC(N)=O)C3=C(C(=O)C(C)=C(N)C3=O)N1CC1C2N1C(=O)OCc1ccc(NC(=O)[C@H](CCCCN)NC(=O)[C@H](Cc2ccccc2)NC(=O)OC(C)(C)C)cc1 (some centres not stated)
2 | 19 | Not hydrolyzed | 540 |  | CC(=O)O[C@H]1C(=O)[C@@]2(C)C([C@H](OC(=O)c3ccccc3)[C@]3(O)C[C@H](OC(=O)[C@H](OC(=O)OCc4ccc(NC(=O)[C@H](CCCCN)NC(=O)[C@H](Cc5ccccc5)NC(=O)OCc5ccccc5)cc4)[C@@H](NC(=O)c4ccccc4)c4ccccc4)C(C)=C1C3(C)C)[C@]1(OC(C)=O)COC1C[C@@H]2O (some centres not stated)
3 | 66 | Not hydrolyzed | 40 |  | CC(=O)O[C@H]1C(=O)[C@@]2(C)C([C@H](OC(=O)c3ccccc3)[C@]3(O)C[C@H](OC(=O)[C@H](O)[C@@H](NC(=O)c4ccccc4)c4ccccc4)C(C)=C1C3(C)C)[C@]1(OC(C)=O)COC1C[C@@H]2OC(=O)OCc1ccc(NC(=O)[C@H](CCCCN)NC(=O)[C@H](Cc2ccccc2)NC(=O)OC(C)(C)C)cc1 (some centres not stated)

Row | Compound | T1/2 (Rattus norvegicus) [min] | T1/2 [1] | T1/2 [2] [min] | T1/2 [3] [h]
4 | COc1cccc2c1C(=O)c1c(O)c3c(c(O)c1C2=O)C[C@@](O)(C(=O)CO)C[C@@H]3OC1CC(NC(=O)OCc2ccc(NC(=O)[C@H](CCCCN)NC(=O)[C@H](Cc3ccccc3)NC(=O)OCc3ccccc3)cc2)C(O)C(C)O1 (some centres not stated) | 29 | Not hydrolyzed | 8 | 
